Article PMC5067704 (ACS Infectious Diseases, 2016)
Values after ≈ are worked out from the molar mass of the structure shown. Read-outs that look alike come from different tables or passages of the source.

Columns and labels:
[1] = tested on: E. coli ATCC 25922; test: MIC determination, E. coli ATCC 25922 (wild type); assay type: cell-based, Escherichia coli; conditions: for MIC: Escherichia coli
[2] = tested on: E. coli clin isol; test: MIC determination, E. coli clinical isolate (second column); assay type: cell-based; conditions: Escherichia coli, n = 4
[3] = Cytotoxicity assay (resazurin), HepG2; assay type: cell-based; conditions: human, HepG2 cells, 20 h incubation, highest concentration 60 μM
[4] = tested on: E. coli MB4827; test: MIC determination, E. coli MB4827; assay type: cell-based; conditions: Escherichia coli, n = 4
[5] = tested on: S. aureus ATCC 25923; test: MIC determination, S. aureus ATCC 25923; assay type: cell-based; conditions: Staphylococcus aureus
[6] = Cytotoxicity assay (resazurin), HEK 293; assay type: cell-based; conditions: human, HEK293 cells, 20 h incubation, highest concentration 60 μM
[7] = tested on: E. coli DC2 mutant; test: microbe, parasite or virus in culture; assay type: cell-based; conditions: Escherichia coli, DC2MUTANT, read-out: MIC E. coli DC2 mutant
[8] = tested on: E. coli clin isol; test: MIC determination, E. coli clinical isolate (first column); assay type: cell-based; conditions: Escherichia coli, n = 4
[9] = tested on: E. coli lpxC/tolC mutant; test: microbe, parasite or virus in culture; assay type: cell-based; conditions: Escherichia coli, read-out: MIC E. coli lpxC/tolC mutant
[10] = tested on: E. coli tolC mutant; test: microbe, parasite or virus in culture; assay type: cell-based, Escherichia coli; conditions: for MIC: Escherichia coli, read-out: MIC E. coli tolC mutant
[11] = target: T1, E. coli dihydrofolate reductase (eDHFR) (Escherichia coli, UniProt P0ABQ4); test: DHFR enzyme inhibition assay; assay type: biochemical
T1 construct: host or cells: cell-free (PURExpress in vitro protein synthesis)
T1 sequence (P0ABQ4 whole entry): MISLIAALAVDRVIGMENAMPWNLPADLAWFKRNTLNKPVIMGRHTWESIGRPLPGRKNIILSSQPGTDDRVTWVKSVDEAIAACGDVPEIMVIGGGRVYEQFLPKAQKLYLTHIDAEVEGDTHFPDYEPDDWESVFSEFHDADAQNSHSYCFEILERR

[12] = tested on: E. coli lpxC mutant; test: microbe, parasite or virus in culture; assay type: cell-based; conditions: Escherichia coli, read-out: MIC E. coli lpxC mutant
[13] = tested on: membrane-impaired mutant E. coli (LpxC and DC2); test: microbe, parasite or virus in culture; conditions: Escherichia coli, read-out: MIC membrane-impaired mutant E. coli (LpxC and DC2)
[14] = tested on: E. coli (ATCC 25922); test: LC-MS/MS bacterial accumulation assay, wild type E. coli; assay type: cell-based, Escherichia coli; conditions: example of the calculation; strain and dose not stated
[15] = ATCC25922, wild type, n = 4, read-out: MIC E. coli ATCC 25922
[16] = ATCC25923, n = 4, read-out: MIC S. aureus ATCC 25923

SMILES | antimicrobial activity, fold less active than TMP ([1]; E. coli strains of Table 1) | MIC [1, 15] [µg/mL] | MIC [2] [µg/mL] | CC50 at 20 h [3] [µM] | MIC [4] [µg/mL] | MIC [5, 16] [µg/mL] | CC50 at 20 h [6] [µM] | MIC [7] [µg/mL] | MIC [8] [µg/mL] | MIC [9] [µg/mL] | MIC [10] [µg/mL] | IC50 [11] [µM] | MIC [12] [µg/mL] | MIC [13] [µg/mL] | measured concentration using LC-MS/MS (lysate) [14] [µM] | MIC ([1]; ATCC25922, molar equivalent of the μg/mL value, read-out: MIC E. coli ATCC 25922, in μM) [µM] | MIC ([5]; ATCC25923, molar equivalent of the μg/mL value, read-out: MIC S. aureus ATCC 25923, in μM) [µM] | MIC E. coli ΔtolC ([10]; molar equivalent of the μg/mL value) [µM]
COc1cc(Cc2cnc(N)nc2N)cc(OC)c1OCCCN=[N+]=[N-] [8a] | 8–16 fold | 8 | 4 (≈ 11.1 µM) | > 60 | 8 (≈ 22.3 µM) | 4 | > 60 | 4 (≈ 11.1 µM) | 8 (≈ 22.3 µM) | 0.25 (≈ 0.696 µM) | 0.25 (≈ 0.696 µM) | 0.066 | – | – | – | – | – | –
COc1cc(Cc2cnc(N)nc2N)cc(OC)c1OCCCCN=[N+]=[N-] [8b] | – | 32 | 16 (≈ 42.8 µM) | > 60 | 16 (≈ 42.8 µM) | 4 | > 60 | 8 (≈ 21.4 µM) | 8 (≈ 21.4 µM) | 0.25 (≈ 0.669 µM) | 0.125 (≈ 0.335 µM) | 0.097 | – | – | – | – | – | –
COc1cc(Cc2cnc(N)nc2N)cc(OC)c1OCCCCCN=[N+]=[N-] [8c] | – | 32 | 16 (≈ 41.3 µM) | > 60 | 32 (≈ 82.6 µM) | 4 | > 60 | 8 (≈ 20.6 µM) | 16 (≈ 41.3 µM) | 0.25 (≈ 0.645 µM) | 0.125 (≈ 0.323 µM) | 0.14 | 8 (≈ 20.6 µM) | – | – | – | – | –
COc1cc(Cc2cnc(N)nc2N)cc(OC)c1OCCCn1cc(CNc2ccc([N+](=O)[O-])c3nonc23)nn1 [12a] | – | > 64 | > 64 | > 60 | > 64 | 64 | > 60 | > 64 | > 64 | 1 (≈ 1.73 µM) | 2 (≈ 3.46 µM) | 0.254 | > 64 | – | – | – | – | –
COc1cc(Cc2cnc(N)nc2N)cc(OC)c1OCCCn1cc(CNC(=O)Cc2cc(=O)oc3cc(N(C)C)ccc23)nn1 [13a] | – | > 64 | > 64 | > 60 | > 64 | > 64 | > 60 | > 64 | > 64 | 8 (≈ 12.4 µM) | 8 (≈ 12.4 µM) | 0.083 | > 64 | – | – | – | – | –
COc1cc(Cc2cnc(N)nc2N)cc(OC)c1OC [TMP, trimethoprim, reference compound] | – | 0.5 | 0.5 (≈ 1.72 µM) | – | 1 (≈ 3.44 µM) | 1 | – | 0.25 (≈ 0.861 µM) | 0.5 (≈ 1.72 µM) | 0.125 (≈ 0.431 µM) | 0.125 (≈ 0.431 µM) | – | – | 0.25 to 0.5 (≈ 0.861 to 1.72 µM) | – | – | – | –
COc1cc(Cc2cnc(N)nc2N)cc(OC)c1OCCCCn1cc(CNc2ccc([N+](=O)[O-])c3nonc23)nn1 [compound 12b] | – | – | > 64 | > 60 | > 64 | – | > 60 | > 64 | > 64 | 0.5 (≈ 0.845 µM) | 0.25 (≈ 0.423 µM) | 0.148 | > 64 | – | 7.122 | 24 | > 94 | 0.37
COc1cc(Cc2cnc(N)nc2N)cc(OC)c1OCCCCCn1cc(CNc2ccc([N+](=O)[O-])c3nonc23)nn1 [compound 12c] | – | > 64 | > 64 | > 60 | > 64 | 8 | 46 | > 64 | > 64 | 0.5 (≈ 0.826 µM) | 0.5 (≈ 0.826 µM) | 0.208 | > 64 | – | – | – | – | –
COc1cc(Cc2cnc(N)nc2N)cc(OC)c1OCCCCn1cc(CNC(=O)Cc2cc(=O)oc3cc(N(C)C)ccc23)nn1 [compound 13b] | – | > 64 | > 64 | > 60 | > 64 | > 64 | > 60 | > 64 | > 64 | 2 (≈ 3.04 µM) | 2 (≈ 3.04 µM) | 0.162 | > 64 | – | – | – | – | –
COc1cc(Cc2cnc(N)nc2N)cc(OC)c1OCCCCCn1cc(CNC(=O)Cc2cc(=O)oc3cc(N(C)C)ccc23)nn1 [compound 13c] | – | > 64 | > 64 | > 60 | > 64 | > 64 | > 60 | > 64 | > 64 | 1 (≈ 1.49 µM) | 1 (≈ 1.49 µM) | 0.668 | > 64 | – | – | – | – | –
COc1cc(Cc2cnc(N)nc2N)cc(OC)c1OCCCn1cc(CNS(=O)(=O)c2cccc3c(N(C)C)cccc23)nn1 [compound 14a] | – | > 64 | > 64 | > 60 | > 64 | > 64 | 59 | > 64 | > 64 | 0.5 (≈ 0.772 µM) | 0.5 (≈ 0.772 µM) | 0.162 | > 64 | – | – | – | – | –
COc1cc(Cc2cnc(N)nc2N)cc(OC)c1OCCCCn1cc(CNS(=O)(=O)c2cccc3c(N(C)C)cccc23)nn1 [compound 14b] | – | > 64 | > 64 | > 60 | > 64 | 64 | 59 | > 64 | > 64 | 1 (≈ 1.51 µM) | 0.5 (≈ 0.756 µM) | 0.226 | > 64 | – | – | – | – | –
COc1cc(Cc2cnc(N)nc2N)cc(OC)c1OCCCCCn1cc(CNS(=O)(=O)c2cccc3c(N(C)C)cccc23)nn1 [compound 14c] | – | > 64 | > 64 | 51 | > 64 | 32 | 32 | > 64 | > 64 | 0.25 (≈ 0.37 µM) | 0.25 (≈ 0.37 µM) | 0.509 | > 64 | – | – | – | – | –
